We go through 28 compounds from PubChem BioAssay AID330 (DTP/NCI, 2004).

For the experiment, the system named is P388 leukemia ip, CD2F1 mice, survival T/C. The experiment in a line: NCI In Vivo Anticancer Drug Screen. Data for tumor model P388 Leukemia (intraperitoneal) in CD2F1 (CDF1) mice. As to conditions: endpoint: median survival time, higher = longer survival. An outline of the steps:
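Mice carrying the transplanted tumor received test compound or vehicle. Survival was recorded in each group, and the value is the treated-group measurement divided by that of the vehicle-treated control group.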

Where [1] appears, read: dose: 60.0 mg/kg/injection, schedule: Q01DX005 (ip), vehicle: saline with Tween-80.
Setting [2] is: dose: 240.0 mg/kg/injection, schedule: Q01DX005 (ip), vehicle: saline with Tween-80.
[3] abbreviates: dose: 120.0 mg/kg/injection, schedule: Q01DX005 (ip), vehicle: saline with Tween-80.
Where [4] appears, read: dose: 12.5 mg/kg/injection, schedule: Q01DX009 (ip), vehicle: saline with Tween-80.
The mark [5] stands for this setting: dose: 100.0 mg/kg/injection, schedule: Q01DX001 (ip), vehicle: saline with Tween-80.
Setting [6] is: dose: 200.0 mg/kg/injection, schedule: Q01DX001 (ip), vehicle: saline with Tween-80.
Setting [7] is: dose: 400.0 mg/kg/injection, schedule: Q01DX001 (ip), vehicle: saline with Tween-80.
[8] abbreviates: dose: 50.0 mg/kg/injection, schedule: Q01DX009 (ip), vehicle: saline.
Where [9] appears, read: dose: 100.0 mg/kg/injection, schedule: Q01DX009 (ip), vehicle: saline.
The mark [10] stands for this setting: dose: 200.0 mg/kg/injection, schedule: Q01DX009 (ip), vehicle: saline.
[11] abbreviates: dose: 50.0 mg/kg/injection, schedule: Q01DX005 (ip), vehicle: saline with Tween-80.
Setting [12] is: dose: 100.0 mg/kg/injection, schedule: Q01DX005 (ip), vehicle: saline with Tween-80.
Setting [13] is: dose: 200.0 mg/kg/injection, schedule: Q01DX005 (ip), vehicle: saline with Tween-80.

Values joined by “and” are separate entries in the source; they are usually repeats but may differ in a detail not shown here. Identical values can stand only once. Toxic doses and inconclusive results are not listed.

In the case of `O=[N+]([O-])OI(c1ccccc1)c1ccccc1`, the T/C was 100 % of control and 101 % of control (2×) (dose: 1.56 mg/kg/injection, schedule: Q01DX009 (ip), vehicle: saline); 101 % of control and 104 % of control (dose: 3.12 mg/kg/injection, schedule: Q01DX009 (ip), vehicle: saline).
`COc1ccc(NC(=O)CCC2=CC(=O)CC(c3ccccc3)O2)cc1` (stereo unspecified): the T/C is 105 % of control under setting [1]; 104 % of control (dose: 124.0 mg/kg/injection, schedule: Q01DX005 (ip), vehicle: saline with Tween-80); 104 % of control under setting [2].
Regarding `Nc1nc(N)c2[nH]c(CNc3ccc(C(=O)O)cc3)nc2n1`, the T/C runs as follows: under setting [1], 89 % of control; under setting [3], 89 % of control; under setting [2], 86 % of control.
As for `CC(C)C[NH-].CC(C)C[NH-].[Cl][Pt+2]([Cl])([Cl])[Cl]`, the T/C runs as follows: (dose: 5.56 mg/kg/injection, schedule: Q01DX009 (ip), vehicle: saline with Tween-80) 169 % of control; (dose: 8.33 mg/kg/injection, schedule: Q01DX009 (ip), vehicle: saline with Tween-80) 166 % of control; under setting [4], 166 % of control and 181 % of control.
Consider `CCN1C(=NCCO)NS(=O)(=O)c2ccccc21`, for which the T/C by setting is: under setting [1], 95 % of control; under setting [3], 106 % of control; under setting [2], 99 % of control.
For the compound `NNc1ccc(-n2ncc(C(N)=O)c2N)nn1`, the T/C by setting is: (dose: 50.0 mg/kg/injection, schedule: Q01DX005 (ip), vehicle: other) 104 % of control; (dose: 100.0 mg/kg/injection, schedule: Q01DX005 (ip), vehicle: other) 107 % of control.
Turning to `S=C([S-])N[N-]c1ccccc1.S=C([S-])N[N-]c1ccccc1.[Ni]`, the T/C is, setting by setting: (dose: 100.0 mg/kg/injection, schedule: Q04DX003 (ip), vehicle: saline with Tween-80) 97 % of control; (dose: 200.0 mg/kg/injection, schedule: Q04DX003 (ip), vehicle: saline with Tween-80) 100 % of control; (dose: 400.0 mg/kg/injection, schedule: Q04DX003 (ip), vehicle: saline with Tween-80) 100 % of control.
In the case of `CC(=O)OC1OC(=O)C(C)(C(C)=O)C1C` (stereo unspecified), the T/C runs as follows: (dose: 12.5 mg/kg/injection, schedule: Q01DX005 (ip), vehicle: distilled water + alcohol) 100 % of control; (dose: 25.0 mg/kg/injection, schedule: Q01DX005 (ip), vehicle: distilled water + alcohol) 100 % of control.
As for `C/C(=C\CCC(C)C1CCC2(C)C3=C(CCC12C)C1(C)CCC(O)C(C)(C)C1CC3)C(=O)O` (stereo unspecified), the T/C is 103 % of control (dose: 12.5 mg/kg/injection, schedule: Q01DX005 (ip), vehicle: DMSO); 101 % of control (dose: 25.0 mg/kg/injection, schedule: Q01DX005 (ip), vehicle: DMSO); 88 % of control (dose: 50.0 mg/kg/injection, schedule: Q01DX005 (ip), vehicle: DMSO); 91 % of control (dose: 100.0 mg/kg/injection, schedule: Q01DX005 (ip), vehicle: DMSO).
Take `CC(=O)O.CC(C)=CCC(OC(=O)C=C(C)C)c1cc(O)c2c(O)ccc(O)c2c1O.[Cr]` (stereo unspecified): the T/C is, setting by setting: under setting [5], 93 % of control; under setting [6], 93 % of control; under setting [7], 94 % of control.
`COc1ccc(OC)c(/C=C2/C(=O)ON=C2C)c1`: the T/C was 114 % of control under setting [1] and 111 % of control under setting [3].
In the case of `C=C(COC(=O)Nc1cc(Cl)ccc1C)C(=O)O`, under “dose: 50.0 mg/kg/injection, schedule: Q01DX009 (ip), vehicle: Klucel (hydroxypropylcellulose) (HPC)”, the T/C is 105 % of control.
`CCCCCCCCCCCC(=O)N(CCO)CCc1ccccc1`: the T/C was 101 % of control and 91 % of control (dose: 25.0 mg/kg/injection, schedule: Q01DX009 (ip), vehicle: saline); 101 % of control and 109 % of control and 95 % of control under setting [8]; 100 % of control and 103 % of control under setting [9]; 103 % of control and 110 % of control under setting [10].
Turning to `Cn1nc(-c2cccnc2)[n+]([O-])c2c(=O)n(C)c(=O)nc1-2`, the T/C is, setting by setting: (dose: 45.0 mg/kg/injection, schedule: Q01DX009 (ip), vehicle: saline with Tween-80) 100 % of control; (dose: 90.0 mg/kg/injection, schedule: Q01DX009 (ip), vehicle: saline with Tween-80) 109 % of control; (dose: 180.0 mg/kg/injection, schedule: Q01DX009 (ip), vehicle: saline with Tween-80) 112 % of control.
Regarding `C[P+]1(C)CCCCC1`, the T/C by setting is: (dose: 100.0 mg/kg/injection, schedule: Q01DX001 (ip), vehicle: saline) 98 % of control; (dose: 200.0 mg/kg/injection, schedule: Q01DX001 (ip), vehicle: saline) 91 % of control.
With `C=CCn1/c(=N\NC(=O)c2ccncc2)sc2ccccc21`, the T/C was 114 % of control (dose: 6.25 mg/kg/injection, schedule: Q01DX009 (ip), vehicle: Klucel (hydroxypropylcellulose) (HPC)); 100 % of control (dose: 12.5 mg/kg/injection, schedule: Q01DX009 (ip), vehicle: Klucel (hydroxypropylcellulose) (HPC)); 103 % of control (dose: 25.0 mg/kg/injection, schedule: Q01DX009 (ip), vehicle: Klucel (hydroxypropylcellulose) (HPC)).
On to `Cc1cc(N)ccc1-n1cnc2c1c(=O)n(C)c(=O)n2C`, for which the T/C runs as follows: (dose: 50.0 mg/kg/injection, schedule: Q01DX005 (ip), vehicle: water) 109 % of control; (dose: 100.0 mg/kg/injection, schedule: Q01DX005 (ip), vehicle: water) 111 % of control.
`CC1C2C=CC1C(c1c3ccc(=O)c(O)c-3oc3c(O)c(O)ccc13)C2C(=O)O` (stereo unspecified): the T/C by setting is: under setting [1], 94 % of control; under setting [3], 87 % of control; under setting [2], 91 % of control.
As for `O=C1c2ccccc2-c2cc(O)c3c4c(O)cc5c6c(ccc(c7ccc1c2c73)c64)C(=O)c1ccccc1-5`, the T/C under setting [11] was 95 % of control, the T/C under setting [12] is 91 % of control and the T/C under setting [13] is 89 % of control.
`O=c1c(CSc2c(-c3ccccc3)c(=O)c2=O)c(-c2ccccc2)c1=O`: the T/C is, setting by setting: under setting [5], 101 % of control; under setting [6], 104 % of control; under setting [7], 95 % of control.
In the case of `Nc1ncnc2c1ccn2CC(O)CO` (stereo unspecified), the T/C by setting is: (dose: 50.0 mg/kg/injection, schedule: Q01DX005 (ip), vehicle: distilled water + alcohol) 101 % of control; (dose: 100.0 mg/kg/injection, schedule: Q01DX005 (ip), vehicle: distilled water + alcohol) 100 % of control; (dose: 200.0 mg/kg/injection, schedule: Q01DX005 (ip), vehicle: distilled water + alcohol) 101 % of control.
As to `CC(C)(C)OC(=O)c1cccc(Br)c1`, the T/C reads like this: under setting [11], 101 % of control; under setting [12], 104 % of control; under setting [13], 105 % of control.
As for `CC(=O)C(=Cc1ccc(C=C(C(C)=O)C(C)=O)cc1)C(C)=O`, the T/C under setting [1] is 114 % of control and the T/C under setting [3] was 111 % of control.
Turning to `Cc1ccccc1OC(=O)Nc1ccc(C(=O)O)c(O)c1`, the T/C by setting is: under setting [5], 95 % of control; under setting [6], 109 % of control.
Consider `CC1=CC(OCc2ccccc2)OC1=O` (stereo unspecified), for which the T/C is 101 % of control (dose: 100.0 mg/kg/injection, schedule: Q04DX002 (ip), vehicle: Klucel (hydroxypropylcellulose) (HPC)); 102 % of control (dose: 200.0 mg/kg/injection, schedule: Q04DX002 (ip), vehicle: Klucel (hydroxypropylcellulose) (HPC)); 104 % of control (dose: 400.0 mg/kg/injection, schedule: Q04DX002 (ip), vehicle: Klucel (hydroxypropylcellulose) (HPC)).
For `Nc1nccc([N+](=O)[O-])n1`, the T/C is 97 % of control under setting [8], 99 % of control under setting [9] and 100 % of control under setting [10].
For `CCCCOC(=O)/C=C(\Cl)C(=O)OCCCC`, the T/C was 102 % of control and 106 % of control and 111 % of control under setting [4]; 111 % of control and 114 % of control and 118 % of control (dose: 25.0 mg/kg/injection, schedule: Q01DX009 (ip), vehicle: saline with Tween-80); 86 % of control (dose: 100.0 mg/kg/injection, schedule: Q01DX009 (ip), vehicle: saline with Tween-80).
For the compound `OC(c1ccco1)c1nc2ccccc2s1` (stereo unspecified), the T/C runs as follows: (dose: 15.0 mg/kg/injection, schedule: Q01DX005 (ip), vehicle: Klucel (hydroxypropylcellulose) (HPC)) 106 % of control; (dose: 30.0 mg/kg/injection, schedule: Q01DX005 (ip), vehicle: Klucel (hydroxypropylcellulose) (HPC)) 100 % of control; (dose: 60.0 mg/kg/injection, schedule: Q01DX005 (ip), vehicle: Klucel (hydroxypropylcellulose) (HPC)) 105 % of control and 92 % of control.
